Data reported in paper PMC11656837, “pH-Responsive Peptide Nanoparticles Deliver Macromolecules to Cells via Endosomal Membrane Nanoporation” (ACS Nano, 2024).
Where no end group is shown, it is not given here.

What was measured:
HeLa cells [1] = conditions: HeLa, 48 h
Text: For this, we use PE-III, the third domain of the Pseudomonas exotoxin. This 25 kDa enzyme ADP ribosylates ribosomal elongation factor 2, thereby blocking protein synthesis and triggering apoptosis. […] Thus, apoptosis will occur only if an exogenous agent, such as a peptide, enables cytosolic delivery of the 4 × 3 nm PE-III protein, Figure 2A.
Comparison of peptide concentration midpoints requires a constant concentration of PE-III in each experiment. […] The major disadvantage of the PE-III assay to detect delivery is that only a few molecules of active PE-III delivered to the cytosol[36] will produce a positive result. To partly mitigate this effect in the assays described below, we use a constant 40 nM PE-III. At such a low concentration, each endosome will contain an average of fewer than one PE-III molecule if we assume passive entrapment of the cargo (see the Supporting Information).
The no treatment (no tx) control group contained cells but no peptide or PE-III enzyme. The Alamar Blue intensity of this group was defined as 100% viability. Media alone without cells was defined as 0% viability.
The concentration range used for each peptide was adjusted according to preliminary measurements of activity in this assay. We assessed PE-III delivery by measuring cell viability using Alamar Blue.
Fifteen thousand HeLa cells were seeded in a clear bottom, black-walled 96-well plate overnight at 37 °C with 5% CO2 in complete media (DMEM + phenol red +10% FBS + antimycotic/antibiotic + nonessential amino acids). Cells were then washed once in PBS and treated with PE-III and peptide in serum-free media without phenol red, with a 50 μL total volume. After a 2-day incubation with treatment, 50 μL of 10% Alamar blue reagent diluted in serum-free media was added directly to each well (5% Alamar blue final) and incubated for 1.5 h at 37 °C. The plate was then read at 550 equiv/590 em on a Biotek plate reader. Untreated cells were used as a negative control, and MelP5-treated cells served as a positive control.

HeLa cells [2] = experiment: Direct cytotoxicity without PE-III cargo (Alamar Blue); format: cell-based, human; conditions: 200 μM peptide, no PE-III, 48 h
Description: The no treatment (no tx) control group contained cells but no peptide or PE-III enzyme. The Alamar Blue intensity of this group was defined as 100% viability. Media alone without cells was defined as 0% viability. […] When 200 μM D-pHD108 and 40 nM PE-III were added together, essentially 100% loss of cell viability was observed, showing that PE-III was effectively delivered to the cytosol by the pHD peptide. […] This observation provides strong support for the hypothesis that PE-III delivery occurs via endocytosis and that it is dependent on endosomal acidification because the L-amino acid peptide, but not the D-amino acid peptide, is susceptible to acidification-dependent proteolytic degradation which occurs in endosomal compartments.
We tested for direct toxicity of the acylated pHD peptides by incubating the same concentrations of acylated pHD peptide variants with cells in the absence of PE-III. […] Thus, all of the apoptosis observed in the PE-III delivery assays was due to the cytosolic delivery of intact PE-III and not to the direct action of the acylated pHD peptide.

RAW macrophages = conditions: read-out: EC50 (peptide concentration midpoint for PE-III delivery), PE-III constant, 48 h, Alamar Blue

CC[C@@H](C)[C@@H](NC(=O)CN)C(=O)NCC(=O)N[C@H](CCC(=O)O)C(=O)N[C@@H](C(=O)N[C@H](CC(C)C)C(=O)N[C@H](Cc1c[nH]cn1)C(=O)N[C@H](CCC(=O)O)C(=O)N[C@H](CC(C)C)C(=O)N[C@H](C)C(=O)N[C@H](CCC(=O)O)C(=O)NCC(=O)N[C@H](CC(C)C)C(=O)N1CCC[C@@H]1C(=O)N[C@H](CCC(=O)O)C(=O)N[C@H](CC(C)C)C(=O)N[C@H](CCC(N)=O)C(=O)N[C@H](CCC(=O)O)C(=O)N[C@H](Cc1c[nH]c2ccccc12)C(=O)N[C@@H](C(=O)N[C@H](Cc1c[nH]cn1)C(=O)N[C@H](C)C(=O)N[C@H](C)C(=O)N[C@H](CCC(N)=O)C(=O)N[C@H](CCC(N)=O)C(=O)N[C@H](CC(C)C)C(N)=O)[C@H](C)CC)C(C)C [D-pHD108] was tested, and the “loss of cell viability” value (HeLa cells [1]; 200 μM peptide + 40 nM PE-III, 37 °C, Alamar Blue) was roughly 100%, the “effect on cell viability, peptide alone” value (HeLa cells [2]) was “no effect on cell viability” and the EC50 (RAW macrophages) was 75 µM.

With “PLGRPQLRRGQF-NH2 [ONEG, reference compound]” the PE-III delivery/apoptosis (HeLa cells [1]; same concentration range as unmodified pHD108, 40 nM PE-III) was “no measurable PE-III delivery/apoptosis”.
